The NIST ThermoML archive (doi:10.1021/acs.jced.8b00524)

Experiment: xn = mol fraction of the nth substance listed
Conditions: 100 kPa, Liquid; for viscosity: Concentric cylinders viscometry; for mass density: Vibrating tube method

CCCCOC(C)=O [butyl ethanoate] + CCCCCCCCO
Conditions	mass density [kg/m3]	viscosity [mPa·s]
293.15 K, x1 = 0.0809	828.3	8.07
293.15 K, x1 = 0.1595	831.8	7.17
293.15 K, x1 = 0.2399	835.5	6.32
293.15 K, x1 = 0.3499	840.9	5.29
293.15 K, x1 = 0.4399	845.6	4.54
293.15 K, x1 = 0.5626	852.5	3.59
293.15 K, x1 = 0.6499	857.6	2.97
293.15 K, x1 = 0.7401	863.2	2.37
293.15 K, x1 = 0.8499	870.4	1.69
293.15 K, x1 = 0.9395	876.6	1.12
293.15 K, x1 = 1	881.1	0.732
298.15 K, x1 = 0.0809	824.6	6.69
298.15 K, x1 = 0.1595	827.9	5.9
298.15 K, x1 = 0.2399	831.5	5.19
298.15 K, x1 = 0.3499	836.7	4.32
298.15 K, x1 = 0.4399	841.3	3.7
298.15 K, x1 = 0.5626	847.9	2.93
298.15 K, x1 = 0.6499	853	2.43
298.15 K, x1 = 0.7401	858.4	1.96
298.15 K, x1 = 0.8499	865.5	1.43
298.15 K, x1 = 0.9395	871.6	0.99
298.15 K, x1 = 1	876	0.677
303.15 K, x1 = 0.0809	820.8	5.59
303.15 K, x1 = 0.1595	823.9	4.92
303.15 K, x1 = 0.2399	827.4	4.3
303.15 K, x1 = 0.3499	832.4	3.57
303.15 K, x1 = 0.4399	836.8	3.06
303.15 K, x1 = 0.5626	843.2	2.42
303.15 K, x1 = 0.6499	848.1	2.01
303.15 K, x1 = 0.7401	853.4	1.63
303.15 K, x1 = 0.8499	860.3	1.22
303.15 K, x1 = 0.9395	866.4	0.88
303.15 K, x1 = 1	870.9	0.628
308.15 K, x1 = 0.0809	817.1	4.72
308.15 K, x1 = 0.1595	820.1	4.15
308.15 K, x1 = 0.2399	823.4	3.61
308.15 K, x1 = 0.3499	828.1	2.99
308.15 K, x1 = 0.4399	832.3	2.56
308.15 K, x1 = 0.5626	838.5	2.05
308.15 K, x1 = 0.6499	843.2	1.73
308.15 K, x1 = 0.7401	848.4	1.42
308.15 K, x1 = 0.8499	855.3	1.08
308.15 K, x1 = 0.9395	861.2	0.79
308.15 K, x1 = 1	865.7	0.585
313.15 K, x1 = 0.0809	813.3	4.01
313.15 K, x1 = 0.1595	815.9	3.52
313.15 K, x1 = 0.2399	818.9	3.06
313.15 K, x1 = 0.3499	823.3	2.53
313.15 K, x1 = 0.4399	827.3	2.17
313.15 K, x1 = 0.5626	833.3	1.75
313.15 K, x1 = 0.6499	838	1.48
313.15 K, x1 = 0.7401	843.1	1.24
313.15 K, x1 = 0.8499	849.9	0.95
313.15 K, x1 = 0.9395	855.8	0.71
313.15 K, x1 = 1	860.5	0.546
318.15 K, x1 = 0.0809	809.4	3.44
318.15 K, x1 = 0.1595	811.9	3.01
318.15 K, x1 = 0.2399	814.6	2.62
318.15 K, x1 = 0.3499	818.8	2.17
318.15 K, x1 = 0.4399	822.6	1.87
318.15 K, x1 = 0.5626	828.4	1.51
318.15 K, x1 = 0.6499	832.9	1.3
318.15 K, x1 = 0.7401	838	1.08
318.15 K, x1 = 0.8499	844.7	0.84
318.15 K, x1 = 0.9395	850.7	0.65
318.15 K, x1 = 1	855.3	0.512
323.15 K, x1 = 0.0809	805.6	2.97
323.15 K, x1 = 0.1595	807.8	2.6
323.15 K, x1 = 0.2399	810.4	2.26
323.15 K, x1 = 0.3499	814.3	1.86
323.15 K, x1 = 0.4399	817.9	1.6
323.15 K, x1 = 0.5626	823.5	1.3
323.15 K, x1 = 0.6499	828	1.12
323.15 K, x1 = 0.7401	832.9	0.96
323.15 K, x1 = 0.8499	839.5	0.76
323.15 K, x1 = 0.9395	845.5	0.6
323.15 K, x1 = 1	850.1	0.485
